In US10550143B2, “C,O-spiro aryl glycoside compounds, preparation therefor and use thereof” (SHANGHAI INSTITUTE OF MATERIA MEDICA, CHINESE ACADEMY OF …, priority 2015, dated 2020):
Marks after values point to notes of the source that are not given here.

Experiments:
[1] = test system: db/db mice; experiment: Chronic administration, oral glucose tolerance in db/db mice; type: in vivo, mouse; settings: for Blood glucose AUC0-2 h / Blood glucose (mmol/L) 0 min / Blood glucose (mmol/L) 15 min / Blood glucose (mmol/L) 30 min / Blood glucose (mmol/L) 60 min / Blood glucose (mmol/L) 90 min / Blood glucose (mmol/L) 120 min / AUC0-2 h reduction rate (%): glucose tolerance, chronic administration; for AUC0-2 h reduction rate (%): vs vehicle
Procedure: (§1) Oral gavage administrated, daily dose volume was 10 mL/kg, administered once daily. Administration time was 9: 00-10:00 daily, and the administration period was 5 weeks.
The glucose tolerance of mice of normal control group, model control group, test substance group and positive control group were determined 3 weeks after administration of drug, oral administrated with 1.5 g/kg of glucose, and taken 2 μL of blood on the tail. 4 μL of normal saline was added to 96 well sharp bottom plate to dilute evenly, and then the blood glucose was measured. The blood glucose levels before the sugar administration and at 15, 30, 60, 90 and 120 min after the sugar administration were measured. The true blood glucose level was calculated and the area under the blood glucose curve within 120 min was calculated by the following formula: AUC0-2h (mmol/L·h)=(BG0+BG15)×0.25/2+(BG15+BG30)×0.25/2+(BG30+BG60)×0.5/2+(BG60+[…])×1.0/2 Note: BG0, BG15, BG30, BG60 and BG120 represent the blood glucose levels before the sugar administration, and at 15, 30, 60, and 120 min after sugar administration, respectively. Average hypoglycemic rate %=(solvent control group AUC0-2h−administration group AUC0-2h)/solvent control group AUC0-2h*100%

[2] = test system: SD rats; experiment: Acute single administration, urinary glucose changes in SD rats; type: in vivo, rat; parameters: Urine glucose concentration / The total amount of glucose excreted: unit not given here; settings: 1 mg/kg oral, after 24 h
Procedure: (1) Acutely Administering Compound to Observed the Urinary Glucose Changes in SD Rats
Thirty-eight male normal SD rats were selected and randomly divided into 5 groups according to body weight and blood glucose, 6-8 in each group. […] After oral gavage, the rats were placed in rats metabolic cages, and urine was collected after 24 h, and the urine volume was recorded, the urine sugar concentration was determined, and urinary sugar content was calculated according to the following formula. Urine content=urinary sugar concentration×urine volume
Glucose levels in urine are measured by the glucose assay kit.
Data were expressed as mean±standard deviation (x±s), and Student's t test was used for statistical analysis of the data, p<0.05 was considered statistically significant.

[3] = test system: db/db mice; experiment: Chronic administration, glycosylated hemoglobin level in db/db mice; type: in vivo, mouse; settings: for HbA1c Decline rate %: vs vehicle
Procedure: as §1
In the end of the above experiment, the orbital blood was taken from animals of each group and divided into two tubes, one was centrifuged to take blood cells for the determination of glycated hemoglobin content, the other tube was added with 25 μL EDTA in advance, centrifuged and the supernatant was taken to determine the indexes such as triglyceride (TG), total cholesterol (TC), total protein (TP), albumin, low density lipoprotein (LDL), high density lipoprotein (HDL), non-esterified fatty acid (NEFA) and so on.

[4] = test system: db/db mice; experiment: Chronic administration, fasting blood glucose in db/db mice; type: in vivo, mouse; settings: for fasting blood glucose Pre: before administration
Procedure: as §1
The random blood glucose of mice in the normal control group, model control group, test substance administration group and positive control group were determined on the 7th, 14th, 21st, 28th day (9: 00-10:00) every week after the first administration, and food was removed and after 6 hours of starvation, the fasting blood glucose in each group was measured. Free drinking during the hunger process. The rate of decrease of blood glucose was calculated according to the following formula: Average hypoglycemic rate %=(Blood glucose of model control group−Blood glucose of administration group)/Model control group×100%

CCc1ccc(Cc2cc3c(cc2Cl)CO[C@]32O[C@H](C)[C@@H](O)[C@H](O)[C@H]2O)s1 [Example A28, (1S,3′R,4′S,5′S,6′R)-6′-methyl-6-((5-ethylthienyl)-2-methyl)-5-chloro-3′,4′,5′,6′-tetrahydro-3H-spiro[isobenzofuran-1,2′-pyran]-3′,4′,5′-triol]
improvement of oral glucose tolerance compared with Dapagliflozin ([1]; after 3 weeks of chronic administration): stronger than that of Dapagliflozin of the same dose | Blood glucose AUC0-2 h ([1]; dose 0.3 mg/kg): 6.3 ± 1.3 | Blood glucose (mmol/L) 0 min ([1]; dose 0.3 mg/kg): 12.3 ± 0.9 mmol/L | Blood glucose (mmol/L) 15 min ([1]; dose 0.3 mg/kg): 22.7 ± 1.4 mmol/L | Blood glucose (mmol/L) 30 min ([1]; dose 0.3 mg/kg): 21.4 ± 1.1 mmol/L | Blood glucose (mmol/L) 60 min ([1]; dose 0.3 mg/kg): 13.5 ± 0.7 mmol/L | Blood glucose (mmol/L) 90 min ([1]; dose 0.3 mg/kg): 12.5 ± 0.9* * mmol/L | Blood glucose (mmol/L) 120 min ([1]; dose 0.3 mg/kg): 10.9 ± 1.0* * mmol/L | AUC0-2 h reduction rate (%) ([1]; dose 0.3 mg/kg): 57.2% | Blood glucose AUC0-2 h ([1]; dose 1 mg/kg): 4.7 ± 1.9 | Blood glucose (mmol/L) 0 min ([1]; dose 1 mg/kg): 10.4 ± 1.0 mmol/L | Blood glucose (mmol/L) 15 min ([1]; dose 1 mg/kg): 16.9 ± 0.8 mmol/L | Blood glucose (mmol/L) 30 min ([1]; dose 1 mg/kg): 18.7 ± 0.7 mmol/L | Blood glucose (mmol/L) 60 min ([1]; dose 1 mg/kg): 11.1 ± 0.5 mmol/L | Blood glucose (mmol/L) 90 min ([1]; dose 1 mg/kg): 10.4 ± 0.6* * mmol/L | Blood glucose (mmol/L) 120 min ([1]; dose 1 mg/kg): 8.7 ± 0.5 mmol/L | AUC0-2 h reduction rate (%) ([1]; dose 1 mg/kg): 68.2% | Blood glucose AUC0-2 h ([1]; dose 3 mg/kg): 6.1 ± 0.9 | Blood glucose (mmol/L) 0 min ([1]; dose 3 mg/kg): 8.1 ± 1.0 mmol/L | Blood glucose (mmol/L) 15 min ([1]; dose 3 mg/kg): 16.1 ± 2.4 mmol/L | Blood glucose (mmol/L) 30 min ([1]; dose 3 mg/kg): 17.4 ± 2.6 mmol/L | Blood glucose (mmol/L) 60 min ([1]; dose 3 mg/kg): 9.1 ± 1.0 mmol/L | Blood glucose (mmol/L) 90 min ([1]; dose 3 mg/kg): 8.9 ± 0.8 mmol/L | Blood glucose (mmol/L) 120 min ([1]; dose 3 mg/kg): 6.9 ± 0.8 mmol/L | AUC0-2 h reduction rate (%) ([1]; dose 3 mg/kg): 58.9% | Blood glucose AUC0-2 h ([1]; dose 10 mg/kg): 2.3 ± 0.8 | Blood glucose (mmol/L) 0 min ([1]; dose 10 mg/kg): 7.2 ± 0.6 mmol/L | Blood glucose (mmol/L) 15 min ([1]; dose 10 mg/kg): 11.3 ± 0.6 mmol/L | Blood glucose (mmol/L) 30 min ([1]; dose 10 mg/kg): 12.3 ± 1.0 mmol/L | Blood glucose (mmol/L) 60 min ([1]; dose 10 mg/kg): 7.1 ± 0.5 mmol/L | Blood glucose (mmol/L) 90 min ([1]; dose 10 mg/kg): 6.5 ± 0.3 mmol/L | Blood glucose (mmol/L) 120 min ([1]; dose 10 mg/kg): 6.2 ± 0.5 mmol/L | AUC0-2 h reduction rate (%) ([1]; dose 10 mg/kg): 84.6% | The total amount of glucose excreted ([2]; Table 3): 337.10 ± 313.7 | Urine glucose concentration ([2]; Table 3): 76.29 ± 71.20 | Urine volume ([2]; Table 3, in mL): 24 ± 6.63 | HbA1c (%) ([3]; dose 0.3 mg/kg): 5.83 ± 0.36 % | HbA1c Decline rate % ([3]; dose 0.3 mg/kg): 23.2% | HbA1c (%) ([3]; dose 1 mg/kg): 6.02 ± 0.30 % | HbA1c Decline rate % ([3]; dose 1 mg/kg): 20.7% | HbA1c (%) ([3]; dose 3 mg/kg): 4.95 ± 0.37 % | HbA1c Decline rate % ([3]; dose 3 mg/kg): 34.8% | HbA1c (%) ([3]; dose 10 mg/kg): 4.50 ± 0.27 % | HbA1c Decline rate % ([3]; dose 10 mg/kg): 40.7% | fasting blood glucose week 1 ([4]; 0.3 mg/kg once daily oral): 10.6 ± 0.9 mmol/L | fasting blood glucose week 2 ([4]; 0.3 mg/kg once daily oral): 10.5 ± 0.8 mmol/L | fasting blood glucose week 3 ([4]; 0.3 mg/kg once daily oral): 12.3 ± 0.9 mmol/L | fasting blood glucose week 4 ([4]; 0.3 mg/kg once daily oral): 12.6 ± 1.2 mmol/L | fasting blood glucose Pre ([4]; 0.3 mg/kg once daily oral): 13.2 ± 0.7 mmol/L | fasting blood glucose week 1 ([4]; 1 mg/kg once daily oral): 8.7 ± 0.6 mmol/L | fasting blood glucose week 2 ([4]; 1 mg/kg once daily oral): 9.4 ± 0.9 mmol/L | fasting blood glucose week 3 ([4]; 1 mg/kg once daily oral): 10.4 ± 1.0 mmol/L | fasting blood glucose week 4 ([4]; 1 mg/kg once daily oral): 10.0 ± 0.7 mmol/L | fasting blood glucose Pre ([4]; 1 mg/kg once daily oral): 13.2 ± 1.3 mmol/L | fasting blood glucose week 1 ([4]; 3 mg/kg once daily oral): 8.6 ± 0.5 mmol/L
